Data taken from US8802693B1, “Azaadamantane derivatives and methods of use” (priority 2011, dated 2014).

How the values were obtained:
Type in all cases: in vivo, human
[1] = test system: subjects with mild-to-moderate Alzheimer's disease; assay: Phase 2a Clinical Study A: ADAS-cog (11-item) total score; details: for ADAS-cog (11-Item) Total Score Observed Mean (SD) Final: final evaluation, 12-week treatment; for efficacy in treatment of core symptoms of Alzheimer's disease in human patients (summary in words): Phase 2a study, dose not stated
Method: (§1) A Phase 2a proof-of-concept (POC) study in subjects with mild-to-moderate dementia of Alzheimer type was conducted. The study was a randomized, double-blind, placebo- and active-controlled, multicenter study designed to evaluate the efficacy and safety of Compound A (ABT-126) in subjects diagnosed with mild-to-moderate Alzheimer's disease, defined as meeting National Institute of Neurological and Communicative Disorders and Stroke/Alzheimer's Disease and Related Disorders Association (NINCDS/ADRDA) criteria for probable AD. […] Subjects were randomized in an equal ratio to one of four treatment groups (placebo, 5 mg Compound A, 25 mg Compound A, or donepezil) for a 12-week treatment period. The primary efficacy measure was the Alzheimer's Disease Assessment Scale—cognitive subscale (ADAS-Cog). Subjects were generally in good health and any chronic medical conditions were stable during the time of screening. Subjects were not taking other medication for Alzheimer's disease.
(§2) The study was a Phase 2, randomized, double-blind, placebo- and active-controlled, multicenter study designed to evaluate the dose-response relationship and safety of two doses of Compound A in subjects diagnosed with mild to moderate AD, defined as meeting NINCDS/ADRDA criteria for probable AD.
(§3) The study consisted of a Screening Period of up to 28 days, a 12-week treatment period, and a post-treatment period. The screening period consisted of three visits: Screening Visit 1, Screening Visit 2, and Day −1. Upon completion of Day −1 procedures, eligible subjects were randomized through an Interactive Voice Response/Interactive Web-Based (IVR/IWB) system. Subjects were randomized in an equal ratio to one of four treatment groups (placebo, 5 mg Compound A, 25 mg Compound A, or donepezil).
(§4) Each subject was instructed to take study drug once-daily in the morning for 12 weeks. Subjects randomized to donepezil took 5 mg donepezil QD for the first 4 weeks and began 10 mg donepezil QD at Week 4 through the remainder of the study. The subject and investigator were blinded to the treatment assignment throughout the study.
(§5) Subjects completed 4 visits during the treatment period at Week 2, Week 4, Week 8 and Week 12. Subjects returned to the study site for a follow-up visit approximately 2 weeks after the Week 12 or premature discontinuation visit for a safety evaluation. In addition, study site personnel contacted each subject's caregiver by telephone approximately 30 days after the subject's last dose of study drug to ascertain the subject's safety status.
(§6) The primary efficacy measure was the Alzheimer's Disease Assessment Scale-cognitive subscale (ADAS-cog). The ADAS-cog was designed to assess the cognitive impairments most common in AD. The ADAS-cog is a subscale of the ADAS, which focuses on cognitive functioning and memory. Two versions were used in the study: an 11-item version and an expanded (13-item) version. The 11-item version of the ADAS-cog was the primary endpoint measure in this study. ADAS-Cog (13-item) was administered throughout the study and the primary efficacy variable was considered the change from baseline to final evaluation on the ADAS-cog total score (11-item).
The 11-item ADAS-cog includes the following tests: Word Recall, Commands, Constructional Praxis, Naming Objects and Fingers, Ideational Praxis, Orientation, Word Recognition, Remembering Test Instructions, Comprehension of Spoken Language, Spoken Language Ability, and Word Finding Difficulty. The total score of the 11-item ADAS-cog ranges from 0 to 70, with a higher score representing greater impairment.
The primary efficacy variable was the change from baseline to the final observation on the ADAS-cog (11-item) total score. The primary efficacy analysis was carried out using an ANCOVA model with treatment and study site as the main effects and baseline score as the covariate. […]

[2] = test system: subjects with mild-to-moderate Alzheimer's disease; assay: Phase 2a Clinical Study A: safety and tolerability
Method: as §1, §2, §4, §5

[3] = test system: subjects with mild-to-moderate Alzheimer's disease; assay: Phase 2a Clinical Study A: ADAS-cog (13-item) total score; details: for ADAS-cog (13-Item) Total Score Observed Mean (SD) Final: final evaluation, 12-week treatment
Method: as §1, §2, §3, §4, §6
The 13-item ADAS-cog is comprised of the 11-item ADAS-cog with two additional items (Delayed Word Recall and a Number Cancellation Test) that are designed to assess attention and concentration. The Delayed Word Recall Test (range from 0 to 10) was an addition to the Word Recall Test to enhance sensitivity of the instrument in assessing cognition functioning on patients with mild AD. The Number Cancellation Test (range from 0 to 5) was reliable and sensitive to a broad range of dementia severity, and was recommended as a useful addition to the 11-item ADAS-cog. The total score of the 13-item ADAS-cog ranges from 0 to 85, with a higher score representing greater impairment. The ADAS-cog (13-item) was administered by a certified rater at Screening Visit 1, Screening Visit 2, and Day-1, as well as Weeks 4, 8, and 12 during the study.

[4] = 5 mg QD, ANCOVA, baseline to final evaluation
[5] = 25 mg QD, ANCOVA, baseline to final evaluation

c1ccc(-c2nnc(O[C@@H]3C4CC5C[C@H]3CN(C5)C4)s2)cc1 [Compound A, (4s)-4-(5-phenyl-1,3,4-thiadiazol-2-yloxy)-1-azatricyclo[3.3.1.1^3,7]decane]
ADAS-cog (11-Item) Total Score Difference From Placebo LS Mean (SE) of Difference [1, 4]: −0.08 | ADAS-cog (11-Item) Total Score LS Mean (SE) of Change [1, 4]: −0.76 (0.64) | ADAS-cog (11-Item) Total Score Observed Mean (SD) change ([1]; 5 mg QD, Change to Week 4): −0.36 (4.01) | ADAS-cog (11-Item) Total Score Observed Mean (SD) change ([1]; 5 mg QD, Change to Week 8): −0.58 (4.83) | ADAS-cog (11-Item) Total Score Observed Mean (SD) change ([1]; 5 mg QD, Change to Week 12): −1.01 (5.50) | ADAS-cog (11-Item) Total Score Difference From Placebo LS Mean (SE) of Difference ([1]; 5 mg QD, MMRM, Week 4): 0.03 (0.65) | ADAS-cog (11-Item) Total Score LS Mean (SE) of Change from Baseline ([1]; 5 mg QD, MMRM, Week 4): −0.06 (0.47) | ADAS-cog (11-Item) Total Score Difference From Placebo LS Mean (SE) of Difference ([1]; 5 mg QD, MMRM, Week 8): 0.07 (0.81) | ADAS-cog (11-Item) Total Score LS Mean (SE) of Change from Baseline ([1]; 5 mg QD, MMRM, Week 8): −0.49 (0.57) | ADAS-cog (11-Item) Total Score Difference From Placebo LS Mean (SE) of Difference ([1]; 5 mg QD, MMRM, Week 12): 0.03 (0.90) | ADAS-cog (11-Item) Total Score LS Mean (SE) of Change from Baseline ([1]; 5 mg QD, MMRM, Week 12): −0.80 (0.64) | ADAS-cog (11-Item) Total Score Observed Mean (SD) Final ([1]; 5 mg QD): 24.30 (10.50) | cognition relative to placebo, ADAS-cog (11-item) MMRM (in words) ([1]; 5 mg, over the 12 weeks): no improvement in cognition relative to placebo | cognition relative to placebo, ADAS-cog (11-item) MMRM (in words) ([1]; 25 mg): trend toward statistical significance at Weeks 4 and 8 in cognitive improvement | ADAS-cog (11-Item) Total Score Difference From Placebo LS Mean (SE) of Difference [1, 5]: −1.19 | ADAS-cog (11-Item) Total Score LS Mean (SE) of Change [1, 5]: −1.86 (0.64) | ADAS-cog (11-Item) Total Score Observed Mean (SD) change ([1]; 25 mg QD, Change to Week 4): −1.18 (4.29) | ADAS-cog (11-Item) Total Score Observed Mean (SD) change ([1]; 25 mg QD, Change to Week 8): −1.94 (5.12) | ADAS-cog (11-Item) Total Score Observed Mean (SD) change ([1]; 25 mg QD, Change to Week 12): −2.12 (5.53) | ADAS-cog (11-Item) Total Score Difference From Placebo LS Mean (SE) of Difference ([1]; 25 mg QD, MMRM, Week 4): −0.84 (0.65) | ADAS-cog (11-Item) Total Score LS Mean (SE) of Change from Baseline ([1]; 25 mg QD, MMRM, Week 4): −0.94 (0.46) | ADAS-cog (11-Item) Total Score Difference From Placebo LS Mean (SE) of Difference ([1]; 25 mg QD, MMRM, Week 8): −1.11 (0.82) | ADAS-cog (11-Item) Total Score LS Mean (SE) of Change from Baseline ([1]; 25 mg QD, MMRM, Week 8): −1.67 (0.58) | ADAS-cog (11-Item) Total Score Difference From Placebo LS Mean (SE) of Difference ([1]; 25 mg QD, MMRM, Week 12): −1.14 (0.91) | ADAS-cog (11-Item) Total Score LS Mean (SE) of Change from Baseline ([1]; 25 mg QD, MMRM, Week 12): −1.97 (0.65) | ADAS-cog (11-Item) Total Score Observed Mean (SD) Final ([1]; 25 mg QD): 26.61 (12.09) | efficacy (in words) ([1]; 25 mg dose, 12 weeks): Evidence for efficacy | efficacy in treatment of core symptoms of Alzheimer's disease in human patients (summary in words) [1]: signal for efficacy | efficacy in treatment of core symptoms of Alzheimer's disease in human patients (summary in words) ([1]; listed as ABT-126): statistically significant efficacy compared to placebo | tolerability in subjects with AD ([2]; 5 mg and 25 mg QD (doses up to 25 mg QD), 12 weeks): generally well tolerated | changes in vital signs, ECG parameters or laboratory assessments ([2]; 5 mg and 25 mg QD, 12 weeks): no consistent clinically meaningful changes | serious adverse events considered by the investigator to be related ([2]; 5 mg and 25 mg QD, 12 weeks): none that were considered by the investigator to be related | dose dependence of adverse events ([2]; 25 mg group): no evidence for a dose-dependent increase in adverse events | ADAS-cog (13-Item) Total Score Difference From Placebo LS Mean (SE) of Difference [3, 4]: −0.13 (1.03) | ADAS-cog (13-Item) Total Score LS Mean (SE) of Change [3, 4]: −0.90 (0.73) | ADAS-cog (13-Item) Total Score Observed Mean (SD) change ([3]; 5 mg QD, Change to Week 4): −0.67 (4.31) | ADAS-cog (13-Item) Total Score Observed Mean (SD) change ([3]; 5 mg QD, Change to Week 8): −0.76 (5.88) | ADAS-cog (13-Item) Total Score Observed Mean (SD) change ([3]; 5 mg QD, Change to Week 12): −1.20 (6.36) | ADAS-cog (13-Item) Total Score Difference From Placebo LS Mean (SE) of Difference ([3]; 5 mg QD, MMRM, Week 4): −0.30 (0.73) | ADAS-cog (13-Item) Total Score LS Mean (SE) of Change from Baseline ([3]; 5 mg QD, MMRM, Week 4): −0.30 (0.52) | ADAS-cog (13-Item) Total Score Difference From Placebo LS Mean (SE) of Difference ([3]; 5 mg QD, MMRM, Week 8): −0.29 (0.95) | ADAS-cog (13-Item) Total Score LS Mean (SE) of Change from Baseline ([3]; 5 mg QD, MMRM, Week 8): −0.64 (0.67) | ADAS-cog (13-Item) Total Score Difference From Placebo LS Mean (SE) of Difference ([3]; 5 mg QD, MMRM, Week 12): 0.15 (1.04) | ADAS-cog (13-Item) Total Score LS Mean (SE) of Change from Baseline ([3]; 5 mg QD, MMRM, Week 12): −0.99 (0.73) | ADAS-cog (13-Item) Total Score Observed Mean (SD) Final ([3]; 5 mg QD): 35.92 (12.07) | ADAS-cog (13-Item) Total Score Difference From Placebo LS Mean (SE) of Difference [3, 5]: −1.83 (1.05) | ADAS-cog (13-Item) Total Score LS Mean (SE) of Change [3, 5]: −2.60 (0.75) | ADAS-cog (13-Item) Total Score Observed Mean (SD) change ([3]; 25 mg QD, Change to Week 4): −2.38 (4.72) | ADAS-cog (13-Item) Total Score Observed Mean (SD) change ([3]; 25 mg QD, Change to Week 8): −2.78 (6.05) | ADAS-cog (13-Item) Total Score Observed Mean (SD) change ([3]; 25 mg QD, Change to Week 12): −2.89 (6.77) | ADAS-cog (13-Item) Total Score Difference From Placebo LS Mean (SE) of Difference ([3]; 25 mg QD, MMRM, Week 4): −2.13 (0.75) | ADAS-cog (13-Item) Total Score LS Mean (SE) of Change from Baseline ([3]; 25 mg QD, MMRM, Week 4): −2.13 (0.53) | ADAS-cog (13-Item) Total Score Difference From Placebo LS Mean (SE) of Difference ([3]; 25 mg QD, MMRM, Week 8): −2.06 (0.98) | ADAS-cog (13-Item) Total Score LS Mean (SE) of Change from Baseline ([3]; 25 mg QD, MMRM, Week 8): −2.42 (0.70) | ADAS-cog (13-Item) Total Score Difference From Placebo LS Mean (SE) of Difference ([3]; 25 mg QD, MMRM, Week 12): −1.61 (1.08) | ADAS-cog (13-Item) Total Score LS Mean (SE) of Change from Baseline ([3]; 25 mg QD, MMRM, Week 12): −2.74 (0.77) | ADAS-cog (13-Item) Total Score Observed Mean (SD) Final ([3]; 25 mg QD): 38.08 (13.81)
